This note sets out measurements from patent US12139477B2, “Compounds, salts thereof and methods for treatment of diseases” (ACADIA PHARMACEUTICALS INC., priority 2017, dated 2024).

Holding throughout (type): cell-based
For data set [1], the target named is T1, 5HT2A (Homo sapiens, UniProt P28223). In words: Beta-arrestin recruitment assay (Tango technology, antagonist mode). To be noted: read-out: 5HT2A (pIC50) Beta-arrestin (converted). Details: engineered protease cleavage site followed by tethered transcription factor (C). An excerpt: Beta-Arrestin Recruitment Assay:
Detecting GPCR Signaling Using the Tango Technology
GPCR signaling through beta-arrestin was detected by the Tango Technology at Thermofisher. This technology is based upon the interaction of intracellular beta-arrestin proteins and the target receptor. Upon ligand binding to the target receptor, the protease tagged arrestin is stimulated and recruited to the engineered protease site on the C-terminus of the GPCR, which triggers release of the tethered transcription factor. The free transcription factor then enters the nucleus and stimulates the beta-lactamase (bla) activity.
Test compounds are received at 1000× (or greater) of the desired starting concentration in 100% DMSO. The 1000× test compounds are serially diluted (10 point […] increments) in 100% DMSO.
Antagonist Assay Protocol:
An Agonist assay screen (see above) is run to obtain the EC80 concentration of the known activator to add in step 3.
1. 32 μL of cells diluted in Assay Media to appropriate cell density are added to the assay plate. If needed, cells are incubated at 37° C./5% CO2 for 6 or 16-24 hours (depending upon cell line specifics) before compound is added.
2. 40 nL of 1000× compound or known antagonist titration plus 4 μL of Assay Media is added to the cells in the assay plate and incubated for 30 minutes at 37° C./5% CO2 in a humidified incubator.
3. 4 μL of the 10×EC80 concentration of agonist, as determined in an Agonist assay, is added to all wells containing test compound and known inhibitor to bring the final assay volume to 40 μL.
4. 4 μL of Assay Media is added to remaining control wells to bring the volume up to 40 μL.
5. The assay plate is incubated for 5 or 16 hours (depending upon cell line specifics) at 37° C./5% CO2 in a humidified incubator.
6. 8 μL of the Substrate Loading Solution is added to the assay plate.
7. The assay plate is incubated for 2 hours at room temperature, in the dark.
8. The assay plate is read on a fluorescence plate reader (Tecan Safire2) and the data is analyzed.
SelectScreen Cell-Based GPCR Profiling Service uses XLfit from IDBS. The dose response curve is curve fit to model number 205 (sigmoidal dose-response model). Custom logic was built in-house for the data analysis tool to address the different compound characteristics that can be observed with functional assays. Using this logic the relative EC50/IC50 value for each given compound is provided.
For orientation: Arrestin recruitment assays detect the binding of arrestin to an activated receptor.

The next data set deals with T2, hERG channel (Homo sapiens, UniProt Q12809).
T2 construct: host or cells: CHO cells, stably transfected
T2 sequence (Q12809 whole entry): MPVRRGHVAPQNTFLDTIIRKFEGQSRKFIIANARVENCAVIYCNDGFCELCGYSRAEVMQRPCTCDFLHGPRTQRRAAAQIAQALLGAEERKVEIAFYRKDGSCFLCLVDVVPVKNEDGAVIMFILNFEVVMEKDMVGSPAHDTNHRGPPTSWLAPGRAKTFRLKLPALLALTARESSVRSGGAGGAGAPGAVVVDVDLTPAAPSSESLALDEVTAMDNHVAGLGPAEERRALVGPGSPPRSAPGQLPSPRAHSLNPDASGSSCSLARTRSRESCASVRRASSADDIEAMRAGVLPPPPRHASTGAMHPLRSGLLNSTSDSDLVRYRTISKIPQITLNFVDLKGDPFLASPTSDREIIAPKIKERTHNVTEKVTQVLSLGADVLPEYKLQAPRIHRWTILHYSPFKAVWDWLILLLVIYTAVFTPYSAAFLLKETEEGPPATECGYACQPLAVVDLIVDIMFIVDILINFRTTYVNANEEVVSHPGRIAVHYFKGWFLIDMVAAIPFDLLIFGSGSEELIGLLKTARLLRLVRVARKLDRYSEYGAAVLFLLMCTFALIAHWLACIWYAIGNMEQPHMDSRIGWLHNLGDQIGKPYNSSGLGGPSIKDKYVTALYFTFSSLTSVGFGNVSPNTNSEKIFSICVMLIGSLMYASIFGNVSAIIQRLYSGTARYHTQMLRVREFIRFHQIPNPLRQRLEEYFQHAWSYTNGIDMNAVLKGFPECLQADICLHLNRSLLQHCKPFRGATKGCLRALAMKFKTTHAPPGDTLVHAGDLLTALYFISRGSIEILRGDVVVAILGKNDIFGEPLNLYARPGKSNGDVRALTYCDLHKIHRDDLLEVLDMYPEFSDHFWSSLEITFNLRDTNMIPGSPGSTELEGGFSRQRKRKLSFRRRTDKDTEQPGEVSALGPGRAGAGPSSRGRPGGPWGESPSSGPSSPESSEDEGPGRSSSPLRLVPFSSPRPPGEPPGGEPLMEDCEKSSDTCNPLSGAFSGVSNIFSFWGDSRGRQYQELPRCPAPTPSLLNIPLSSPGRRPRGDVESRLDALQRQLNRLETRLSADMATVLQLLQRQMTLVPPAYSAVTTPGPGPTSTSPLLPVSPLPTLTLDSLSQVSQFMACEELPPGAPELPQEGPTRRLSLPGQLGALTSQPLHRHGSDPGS
The data set is described as follows: hERG assay, whole cell recordings in CHO cells (AVIVA). Particulars: CHO cells stably expressing hERG, pH 7.4. As for the experimental part: The most common mechanism for these adverse events is the inhibition of one or more cardiac potassium channels, in particular hERG. This current is important for cardiac myocyte repolarization and is a common target for drugs that prolong the QT interval. Test articles in this study were therefore characterized to determine their ability to inhibit the hERG channel. Ion channel activity was measured at AVIVA Biosciences Corporation (San Diego, CA), using a stably transfected Chinese Hamster Ovary (CHO) cell line expressing the hERG mRNA.
Cells: AVIVA's CHO cell line, which stably expresses hERG channels, was used for the study. Cells were cultured in DMEM/F12 containing 10% FBS, 1% penicillin/streptomycin and 500 μg/ml G418. Before testing, cells were harvested using Accumax (Innovative Cell Technologies).
Solutions: For electrophysiological recordings, the following solutions were used: External Solution: 2 mM CaCl2); 2 mM MgCl2; 4 mM KCl; 150 mM NaCl; 10 mM Glucose; 10 mM HEPES; 305-315 mOsm; pH 7.4 (adjusted with 5M NaOH); Internal Solution: 140 mM KCl; 10 mM MgCl2; 6 mM EGTA; 5 mM HEPES-Na; 5 mM ATP-Mg; 295-305 mOsm; pH 7.25 (adjusted with 1M KOH).
Electrophysiology: Whole cell recordings were performed using PX 7000A (Axon Instruments) with AVIVA's SealChip™ technology. Cells were voltage clamped at a holding potential of −80 mV. The hERG current was then activated by a depolarizing step to −50 mV for 300 ms. This first step at −50 mV was used as a baseline for measuring peak amplitude of the tail current. Next, a voltage step to +20 mV was applied for 5 s to activate the channels. Finally, a step back to −50 mV for 5 s removed activation and the deactivating tail current was recorded.
Test Article Handling and Dilutions: All test articles were prepared from 10 mM DMSO stock solutions provided by Sponsor. Solutions were mixed by sonication for 20 min, followed by vigorous vortexing. Prior to testing, compounds were diluted to test concentrations in glass vials using External Solution. Dilutions were prepared no longer than 20 min prior to use.
Electrophysiology Procedures: After achieving whole cell configuration, cells were monitored for 90 s to assess stability and then washed with External Solution for 66 s. The voltage protocol previously described was then applied to the cells every 12 s throughout the procedure. Only stable cells with recording parameters above threshold (see Quality Control section) were allowed to enter the drug addition procedure. External solution containing 0.1% DMSO (vehicle) was applied to the cells to establish a baseline. […] Test article solutions were added to cells in 4 separate additions. Cells were kept in test solution until effect of the test article reached steady state, to a maximum of 12 min. Next, 1 μM cisapride (positive control) was added. Finally, washout with External Solution was performed until the recovery current reached steady state.
Data Analysis: Data analysis was performed using DataXpress (Axon Instruments), Clampfit (Axon Instruments) and Origin (OriginLab Corporation) software.
(Block of hERG is tested as a sign of cardiac risk.)

Data set [2] addresses T1, 5HT2A. The data set is described as follows: Receptor Selection and Amplification (R-SAT) functional assay. Details: expressed in transfected cells; host or cells: NIH3T3 cells, pSI mammalian expression vector. To be noted: NIH3T3 cells; Ki from IC50 by Cheng and Prussoff; read-out: 5-HT2a (pKi) (R-SAT) (converted). An excerpt: Receptor Selection and Amplification (R-SAT) Assays. […] The IC50 determined in the RSAT assay was converted into a Ki value using the method of Cheng and Prussoff, Biochem Pharmacol., 1973 Dec. 1; 22(23):3099-108. pKi is the negative of the log(Ki).

T1 sequence (P28223 whole entry): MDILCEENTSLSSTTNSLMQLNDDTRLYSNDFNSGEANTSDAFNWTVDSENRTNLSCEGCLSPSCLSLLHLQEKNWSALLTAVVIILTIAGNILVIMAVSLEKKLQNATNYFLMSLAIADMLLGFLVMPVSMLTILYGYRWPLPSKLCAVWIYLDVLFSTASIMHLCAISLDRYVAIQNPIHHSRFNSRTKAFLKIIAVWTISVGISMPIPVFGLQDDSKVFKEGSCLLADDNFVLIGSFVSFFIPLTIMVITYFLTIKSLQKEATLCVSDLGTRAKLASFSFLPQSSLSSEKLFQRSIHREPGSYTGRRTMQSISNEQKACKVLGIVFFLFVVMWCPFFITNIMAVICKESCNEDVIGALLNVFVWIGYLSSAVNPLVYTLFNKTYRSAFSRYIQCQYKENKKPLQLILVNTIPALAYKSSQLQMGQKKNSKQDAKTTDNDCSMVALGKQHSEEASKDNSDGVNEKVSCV

Turning to `Cc1cc2cc(CNC(=O)N(Cc3ccc(F)cc3F)C3CCN(C)CC3)ccc2[nH]1` [Example 36], the IC50 at 5HT2A [1] was 25.1 nM. Further, the inhibition (commonly how much of the control response was suppressed) at 1 µM against hERG channel is 29%.

With `CC(C)Oc1ccc(CNC(=O)N(Cc2ccc([N+](=O)[O-])cc2F)C2CCN(C)CC2)cc1` [Example 44], the IC50 on 5HT2A [1] was 158 nM. In addition, the inhibition at 1 µM on hERG channel came out at 70%.

For the compound `Cc1n[nH]c2ccc(CNC(=O)N(Cc3ccc(F)cc3F)C3CCN(C)CC3)cc12` [Example 42], the IC50 at 5HT2A [1] was 251 nM.

For the compound `CN1CCC(N(Cc2ccc(F)cc2F)C(=O)NCc2ccc3ncccc3c2)CC1` [Example 27], the IC50 on 5HT2A [1] is 79.4 nM.

`CN1CCC(N(Cc2ccc(F)cc2F)C(=O)NCc2ccc3c(c2)CCN3C)CC1` [Example 23]: the IC50 at 5HT2A [1] was 15.8 nM. Also, at hERG channel, the inhibition at 1 µM was found to be 13%.

As to `Cc1noc2cc(CNC(=O)N(Cc3ccc(F)cc3F)C3CCN(C)CC3)ccc12` [Example 24], on 5HT2A [1], the IC50 was 126 nM. Moreover, the inhibition at 1 µM at hERG channel was 10%.

Consider `CN1CCC(N(Cc2ccc(F)cc2F)C(=O)NCc2ccc3c(c2)CCS3(=O)=O)CC1` [Example 37], for which the IC50 at 5HT2A [1] is 631 nM. Further, the inhibition at 1 µM against hERG channel is 8%.

As for `CN1CCC(N(Cc2ccc(F)cc2F)C(=O)NCc2ccc3cnn(C)c3c2)CC1` [Example 35], on 5HT2A [1], the IC50 was 200 nM.

Turning to `Cc1cc2cc(CNC(=O)N(Cc3ccc(F)cc3F)C3CCN(C)CC3)ccc2n1C` [Example 25], the IC50 at 5HT2A [1] is 100 nM.

Turning to `CN1CCC(N(Cc2ccc(F)cc2F)C(=O)NCc2ccc3c(c2)CCC3)CC1` [Example 38], at 5HT2A [1], the IC50 was 3.98 nM.

Consider `Cc1c[nH]c2ccc(CNC(=O)N(Cc3ccc(F)cc3F)C3CCN(C)CC3)cc12` [Example 21], for which the IC50 at 5HT2A [1] was 200 nM.

Take `O=C(O)C(F)(F)F.[2H]C([2H])([2H])C(N1CCC(N(Cc2ccc(F)cc2F)C(=O)NCc2ccc(OC(C)C)cc2)CC1)C([2H])([2H])[2H]` [Example 75, 1-[(2,4-difluorophenyl)methyl]-1-{1-[(1,1,1,3,3,3-^2H6)propan-2-yl]piperidin-4-yl}-3-{[4-(propan-2-yloxy)phenyl]methyl}urea; Trifluoroacetic Acid]: the IC50 at 5HT2A [1] is 3.98 nM.

`CN1CCC(N(Cc2ccc(F)cc2F)C(=O)NCc2ccc3c(c2)OC(C)(C)C=C3)CC1` [Example 34]: the IC50 on 5HT2A [1] is 316 nM.

With `CN1CCC(N(Cc2ccc(F)cc2F)C(=O)NCc2ccc(OCC(F)F)cc2)CC1` [Example 154, 3-{[4-(2,2-difluoroethoxy)phenyl]methyl}-1-[(2,4-difluorophenyl)methyl]-1-(1-methylpiperidin-4-yl)urea; Trifluoroacetic Acid], the Ki on 5HT2A [2] is 1.26 nM. This compound also showed an inhibition at 1 µM against hERG channel of 23%.

As to `CC(C)COc1ccc(CNC(=O)N(Cc2ccc(F)cc2F)C2CCNCC2)cc1` [Example 4, 1-[(2,4-difluorophenyl)methyl]-3-{[4-(2-methylpropoxy)phenyl]methyl}-1-(piperidin-4-yl)urea], the Ki on 5HT2A [2] was 2.51 nM. This compound also yielded an inhibition at 1 µM against hERG channel of 11%.

For the compound `CC1(C)Cc2cc(CNC(=O)N(Cc3ccc(F)cc3F)C3CCNCC3)ccc2O1` [Example 158, 1-[(2,4-difluorophenyl)methyl]-3-[(2,2-dimethyl-2,3-dihydro-1-benzofuran-5-yl)methyl]-1-(piperidin-4-yl)urea; Trifluoroacetic Acid], the Ki at 5HT2A [2] was 0.794 nM. This compound also returned an inhibition at 1 µM on hERG channel of 8%.

For the compound `CC(C)COc1ccc(CNC(=O)N(Cc2ccc(F)cc2)C2CCN(C)CC2)cc1F` [Example 6, 3-{[3-fluoro-4-(2-methylpropoxy)phenyl]methyl}-1-[(4-fluorophenyl)methyl]-1-(1-methylpiperidin-4-yl)urea], the Ki at 5HT2A [2] was 2 nM. For the same compound, the inhibition at 1 µM against hERG channel amounted to 70%.

Regarding `CCOc1ccc(CNC(=O)N(Cc2ccc(F)cc2F)C2CCN(C)CC2)cc1` [Example 16, 1-[(2,4-difluorophenyl)methyl]-3-[(4-ethoxyphenyl)methyl]-1-(1-methylpiperidin-4-yl)urea], the Ki at 5HT2A [2] is 2 nM. On hERG channel, this compound showed an inhibition at 1 µM of 29%.
